Source: patent US9617283B2, “Bicyclic heterocycle compounds and their uses in therapy” (ASTEX THERAPEUTICS LIMITED, priority 2012, dated 2017)
Structures can show the parent of a compound that is named as a salt. Where two headings read alike, the source gives them in different places.

Experiments:
[1] = target: T1, BIR3 domain of human XIAP (residues 252-350) (Homo sapiens, UniProt P98170); experiment: XIAP in vitro competitive displacement binding assay (fluorescence polarization); details: 1 h, percent inhibition (PI) at 0.04 μM; read-out: Xiap IC50 or PI μM
T1 construct: BIR3 domain of human XIAP (residues 252-350); His-tag (cleaved yes); made in house; host or cells: Escherichia coli

[2] = tested on: EVSA-T (human breast carcinoma); experiment: Anti-proliferative activity, Alamar Blue assay, EVSA-T; assay type: cell-based
[3] = Homo sapiens, EVSA-T, 72 h, EVSA-T cell line, 72 hours, Alamar Blue; read-out: EVSA-T prolif
[4] = Homo sapiens, EVSA-T; read-out: EC50 in EVSA-T cell line assays

T1 sequence (P98170 252-350): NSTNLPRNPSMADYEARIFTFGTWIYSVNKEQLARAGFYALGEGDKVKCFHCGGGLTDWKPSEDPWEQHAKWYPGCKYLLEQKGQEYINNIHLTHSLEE

Compound | inhibition at 0.04 µM [1] [%] | EC50 [2, 3] [nM] | EC50 [2, 4] [nM] | EC50 ([2]; Homo sapiens, EVSA-T, read-out: EC50 in EVSA-T cell line assays) [nM]
CCCC(F)(F)c1cc2c(cn1)C(C)(C)CN2C(=O)CN1C[C@@H](C)NC[C@@H]1CN1C[C@H](C)OCC1=O [Example 26, (6S)-4-{[(2R,5R)-1-{2-[6-(1,1-Difluorobutyl)-3,3-dimethyl-1H,2H,3H-pyrrolo[3,2-c]pyridin-1-yl]-2-oxoethyl}-5-methylpiperazin-2-yl]methyl}-6-methylmorpholin-3-one, dihydrochloride] | 60 | 27 | < 1000 | 
CCCC(F)(F)c1cc2c(cn1)C(C)(C)CN2C(=O)CN1C[C@@H](C)NC[C@@H]1CN1Cc2ccccc2C1=O [Example 27, 2-{[(2R,5R)-1-{2-[6-(1,1-Difluorobutyl)-3,3-dimethyl-1H,2H,3H-pyrrolo[3,2-c]pyridin-1-yl]-2-oxoethyl}-5-methylpiperazin-2-yl]methyl}-2,3-dihydro-1H-isoindol-1-one, dihydrochloride] | 75 | 5.2 | < 1000 | 
CCCC(F)(F)c1cc2c(cn1)C(C)(C)CN2C(=O)CN1C[C@@H](C)NC[C@@H]1CN1CC(C)=C(C)C1=O [Example 28, 1-{[(2R,5R)-1-{2-[6-(1,1-Difluorobutyl)-3,3-dimethyl-1H,2H,3H-pyrrolo[3,2-c]pyridin-1-yl]-2-oxoethyl}-5-methylpiperazin-2-yl]methyl}-3,4-dimethyl-2,5-dihydro-1H-pyrrol-2-one, dihydrochloride] | 67 | 10 | < 1000 | 
C[C@@H]1CN(CC(=O)N2CC(C)(C)c3ncc(Cc4ccc(F)cc4F)cc32)[C@@H](CN2CC(C)(C)CC2=O)CN1 [Example 30, 1-{[(2R,5R)-1-(2-{6-[(2,4-Difluorophenyl)methyl]-3,3-dimethyl-1H,2H,3H-pyrrolo[3,2-b]pyridin-1-yl}-2-oxoethyl)-5-methylpiperazin-2-yl]methyl}-4,4-dimethylpyrrolidin-2-one dihydrochloride] | 70 | 1.1 |  | < 1000
C[C@@H]1CN(CC(=O)N2CC(C)(C)c3cnc(Cc4ccc(F)cc4F)cc32)[C@@H](CN2CC(C)(C)CC2=O)CN1 [Example 32, 1-{[(2R,5R)-1-(2-{6-[(2,4-Difluorophenyl)methyl]-3,3-dimethyl-1H,2H,3H-pyrrolo[3,2-c]pyridin-1-yl}-2-oxoethyl)-5-methylpiperazin-2-yl]methyl}-4,4-dimethylpyrrolidin-2-one dihydrochloride] | 71 | 1.3 | < 1000 | 
CC1=C(C)C(=O)N(C[C@H]2CN[C@H](C)CN2CC(=O)N2CC(C)(C)c3cnc(Cc4ccc(F)cc4F)cc32)C1 [Example 33, 1-{[(2R,5R)-1-(2-{6-[(2,4-Difluorophenyl)methyl]-3,3-dimethyl-1H,2H,3H-pyrrolo[3,2-c]pyridin-1-yl}-2-oxoethyl)-5-methylpiperazin-2-yl]methyl}-3,4-dimethyl-2,5-dihydro-1H-pyrrol-2-one dihydrochloride] | 81 | 1.1 | < 1000 | 
CC1=C(C)C(=O)N(C[C@H]2CN[C@H](C)CN2CC(=O)N2CC(C)(C)c3cnc(Cc4ccc(F)cc4)cc32)C1 [Example 36, 1-{[(2R,5R)-1-(2-{6-[(4-Fluorophenyl)methyl]-3,3-dimethyl-1H,2H,3H-pyrrolo[3,2-c]pyridin-1-yl}-2-oxoethyl)-5-methylpiperazin-2-yl]methyl}-3,4-dimethyl-2,5-dihydro-1H-pyrrol-2-one dihydrochloride] | 74 | 1.7 | < 1000 | 
CCCC(F)(F)c1cc2c(cn1)C(C)(C)CN2C(=O)CN1C[C@@H](C)NC[C@@H]1CN1CC(C)(C)CC1=O [Example 38, 1-{[(2R,5R-1-{2-[6-(1,1-Difluorobutyl)-3,3-dimethyl-1H,2H,3H-pyrrolo[3,2-c]pyridin-1-yl]-2-oxoethyl}-5-methylpiperazin-2-yl]methyl}-4,4-dimethylpyrrolidin-2-one dihydrochloride] | 76 | 13 | < 1000 | 
CC1=C(C)C(=O)N(C[C@H]2CN[C@H](C)CN2CC(=O)N2CC(C)(C)c3nnc(Cc4ccc(F)cc4F)cc32)C1 [Example 50, 1-{[(2R,5R)-1-(2-{3-[(2,4-Difluorophenyl)methyl]-7,7-dimethyl-5H,6H,7H-pyrrolo[3,2-c]pyridazin-5-yl}-2-oxoethyl)-5-methylpiperazin-2-yl]methyl}-3,4-dimethyl-2,5-dihydro-1H-pyrrol-2-one L-lactate] | 66 | 1.2 | < 1000 | 
CC1=C(C)C(=O)N(C[C@H]2CN[C@H](C)CN2CC(=O)N2CC(C)(C)c3nnc(Cc4ccc(F)cc4)cc32)C1 [Example 51, 1-{[(2R,5R)-1-(2-{3-[(4-Fluorophenyl)methyl]-7,7-dimethyl-5H,6H,7H-pyrrolo[3,2-c]pyridazin-5-yl}-2-oxoethyl)-5-methylpiperazin-2-yl]methyl}-3,4-dimethyl-2,5-dihydro-1H-pyrrol-2-one L-lactate] | 48 | 4.9 | < 1000 | 
CCCC(F)(F)c1cc2c(nn1)C(C)(C)CN2C(=O)CN1C[C@@H](C)NC[C@@H]1CN1Cc2ccccc2C1=O [Example 59, 2-{[(2R,5R)-1-{2-[3-(1,1-Difluorobutyl)-7,7-dimethyl-5H,6H,7H-pyrrolo[3,2-c]pyridazin-5-yl]-2-oxoethyl}-5-methylpiperazin-2-yl]methyl}-2,3-dihydro-1H-isoindol-1-one dihydrochloride] | 68 | 1.6 | < 1000 | 
C[C@@H]1CN(CC(=O)N2CC(C)(C)c3cnc(Cc4ccc(F)cc4)cc32)[C@@H](CN2Cc3ccccc3C2=O)CN1 [Example 60, 2-{[(2R,5R)-1-(2-{6-[(4-Fluorophenyl)methyl]-3,3-dimethyl-1H,2H,3H-pyrrolo[3,2-c]pyridin-1-yl}-2-oxoethyl)-5-methylpiperazin-2-yl]methyl}-2,3-dihydro-1H-isoindol-1-one dihydrochloride] | 94 | 0.29 | < 1000 | 
CCCC(F)(F)c1cc2c(cn1)C(C)(C)CN2C(=O)CN1C[C@@H](C)NC[C@@H]1CN1Cc2ncccc2C1=O [Example 68, 6-{[(2R,5R)-1-{2-[6-(1,1-Difluorobutyl)-3,3-dimethyl-1H,2H,3H-pyrrolo[3,2-c]pyridin-1-yl]-2-oxoethyl}-5-methylpiperazin-2-yl]methyl}-5H,6H,7H-pyrrolo[3,4-b]pyridin-5-one dihydrochloride] | 72 | 2.4 | < 1000 | 
C[C@@H]1CN(CC(=O)N2CC(C)(C)c3cnc(Cc4ccc(F)cc4F)cc32)[C@@H](CN2C[C@@H](C)OCC2=O)CN1 [Example 69, (6R)-4-{[(2R,5R)-1-(2-{6-[(2,4-Difluorophenyl)methyl]-3,3-dimethyl-1H,2H,3H-pyrrolo[3,2-c]pyridin-1-yl}-2-oxoethyl)-5-methylpiperazin-2-yl]methyl}-6-methylmorpholin-3-one dihydrochloride] | 68 | 2.6 | < 1000 | 
C[C@@H]1CC(=O)N(C[C@H]2CN[C@H](C)CN2CC(=O)N2CC(C)(C)c3ncc(Cc4ccc(F)cc4F)cc32)C1 [Example 70, (4R)-1-{[(2R,5R)-1-(2-{6-[(2,4-Difluorophenyl)methyl]-3,3-dimethyl-1H,2H,3H-pyrrolo[3,2-b]pyridin-1-yl}-2-oxoethyl)-5-methylpiperazin-2-yl]methyl}-4-methylpyrrolidin-2-one dihydrochloride] | 55 | 3.2 | < 1000 | 
C[C@@H]1CC(=O)N(C[C@H]2CN[C@H](C)CN2CC(=O)N2CC(C)(C)c3cnc(Cc4ccc(F)cc4F)cc32)C1 [Example 71, (4R)-1-{[(2R,5R)-1-(2-{6-[(2,4-Difluorophenyl)methyl]-3,3-dimethyl-1H,2H,3H-pyrrolo[3,2-c]pyridin-1-yl}-2-oxoethyl)-5-methylpiperazin-2-yl]methyl}-4-methylpyrrolidin-2-one dihydrochloride] | 64 | 2.5 | < 1000 | 
CCCC(F)(F)c1cc2c(cn1)C(C)(C)CN2C(=O)CN1C[C@@H](C)NC[C@@H]1CN1C[C@H](C)CC1=O [Example 72, (4R)-1-{[(2R,5R)-1-{2-[6-(1,1-Difluorobutyl)-3,3-dimethyl-1H,2H,3H-pyrrolo[3,2-c]pyridin-1-yl]-2-oxoethyl}-5-methylpiperazin-2-yl]methyl}-4-methylpyrrolidin-2-one dihydrochloride] | 79 | 27 | < 1000 | 
C[C@H]1CC(=O)N(C[C@H]2CN[C@H](C)CN2CC(=O)N2CC(C)(C)c3ncc(Cc4ccc(F)cc4F)cc32)C1 [Example 73, (4S)-1-{[(2R,5R)-1-(2-{6-[(2,4-Difluorophenyl)methyl]-3,3-dimethyl-1H,2H,3H-pyrrolo[3,2-b]pyridin-1-yl}-2-oxoethyl)-5-methylpiperazin-2-yl]methyl}-4-methylpyrrolidin-2-one dihydrochloride] | 64 | 2.5 | < 1000 | 
C[C@H]1CC(=O)N(C[C@H]2CN[C@H](C)CN2CC(=O)N2CC(C)(C)c3cnc(Cc4ccc(F)cc4F)cc32)C1 [Example 74, (4S)-1-{[(2R,5R)-1-(2-{6-[(2,4-Difluorophenyl)methyl]-3,3-dimethyl-1H,2H,3H-pyrrolo[3,2-c]pyridin-1-yl}-2-oxoethyl)-5-methylpiperazin-2-yl]methyl}-4-methylpyrrolidin-2-one dihydrochloride] | 71 | 1.8 | < 1000 | 
